Results reported in patent US11466025B2, “Thienopyridine derivatives containing unsaturated aliphatic olefinic bond, preparation method and use thereof” (Tianjin Institute of Pharmaceutical Research Co., Ltd., priority 2017, dated 2022).

Legend:
[1] = Light-avoidance stability test after being packaged with aluminum foil (HPLC); format: physicochemical
Method: The stability of the compound is investigated under the conditions of high temperature, high humidity and light. The testing conditions for high performance liquid chromatography (HPLC) are as follows: Samples relating to Compound I-2 were tested using Method 2 and other samples were tested using Method 1. The test results of the influence factors are shown in Table 14, and the test results of the light-avoidance stability test are shown in Table 15.

[2] = Stability of the compounds under high temperature, high humidity and light (influence factors, HPLC); format: physicochemical
Method: Study on the Stability of the Compounds:
The stability of the compound is investigated under the conditions of high temperature, high humidity and light. The testing conditions for high performance liquid chromatography (HPLC) are as follows:
Instrument: high performance liquid chromatography;
Column: Inertsil C8-3, 150 mm×4.6 mm, 5 μm;
Mobile phase A: acetonitrile; mobile phase B: 5 mM ammonium dihydrogen phosphate;
Detection wavelength: 220 nm;
Column temperature: 35° C.;
Sample chamber temperature: 25° C.;
Column: Agilent Poroshell 120 EC-C18, 100 mm×4.6 mm, 2.7 μm;
Column temperature: 30° C.;
Other conditions are the same as that in Method 1.
Samples relating to Compound I-2 were tested using Method 2 and other samples were tested using Method 1. The test results of the influence factors are shown in Table 14, and the test results of the light-avoidance stability test are shown in Table 15.

beagle dogs = assay: Safety evaluation in multiple dosing (14 days); format: in vivo; settings: for Drug-related toxicity (appearance, mental activity, appetite, hematological, blood biochemical, ECG): continuous intragastrical administration for 14 days; for ECG examinations, hematological tests and serum biochemical tests: day 7 and 14
Method: Safety Evaluation of Compounds I-1 and I-2 in Multiple Dosing:
The test consisted of a physiological control group, a solvent control group, and two administration groups, with 4 animals in each group, half of which were male and the other half of which were female. Two dose groups, 100 mg/kg group and 300 mg/kg group, were set for the test compounds, to which the test compounds at doses of 100 mg/kg and 300 mg/kg were intragastrically administered respectively over 14 days. The solvent control group was administered with an equal volume of the blank solvent. Animals were daily observed for various conditions during the test. ECG examinations were performed before administration, and 7 and 14 days after administration. Hematological and blood biochemical tests were performed before administration and 7 and […] after administration.

[3] = system: bleeding time of amputated tail in rats; assay: Test of hemorrhagic side effects: bleeding time of amputated tail in rats; format: in vivo, SD rats; settings: intragastric, tail cut 1 h after administration, linear equation fitted
Method: Test of Hemorrhagic Side Effects:
1 h after administration, the rats were anesthetized by intraperitoneal injection of 20% urethane (1 g/kg), and the tail was cut off 5 mm from the tip of the tail, which was then placed in a test tube containing 5 ml normal saline at 37° C. The time from tail cut to cease of bleeding was recorded as the bleeding time. The increasing rate of bleeding time in each dose group was calculated, with the bleeding time of the rats in the control group being 100%.

[4] = Stability of crystalline form A of I-1 (X-ray powder diffraction after high temperature, high humidity, light); format: physicochemical
[5] = 5 days, Light (aluminum foil) 4500 ± 500 LX
[6] = 10 days, Light (aluminum foil) 4500 ± 500 LX
[7] = 30 days, Light (aluminum foil) 4500 ± 500 LX
[8] = 5 days, High temperature 60° C.
[9] = 10 days, High temperature 60° C.
[10] = 30 days, High temperature 60° C.
[11] = intragastric 100 mg/kg over 14 days
[12] = intragastric 300 mg/kg over 14 days

## C/C=C/C=C/C(=O)Oc1cc2c(s1)CCN([C@H](C(=O)OC)c1ccccc1Cl)C2 [Compound I-2, Methyl (S)-2-(2-chlorophenyl)-2-(2-((2E,4E)-2,4-hexadienoyloxy)-6,7-dihydrothieno[3,2-c]pyridin-5(4H)-yl)-acetate]
[1]; 0 day, 0point
  Chromatographic purity %: 98.879%
  Individual maximum impurity %: 0.705%
[1]; [5]
  Chromatographic purity %: 98.348%
  Individual maximum impurity %: 0.699%
[1]; [6]
  Chromatographic purity %: 98.544%
  Individual maximum impurity %: 0.699%
[1]; [7]
  Chromatographic purity %: 98.434%
  Individual maximum impurity %: 0.696%
[2]; 0 day, 0point
  Chromatographic purity %: 98.879%
  Isomer %: 0.705%
[2]; 5 days, High humidity RH92.5%
  Chromatographic purity %: 98.897%
  Isomer %: 0.707%
[2]; [8]
  Chromatographic purity %: 98.840%
  Isomer %: 0.696%
[2]; 5 days, Light 4500 ± 500 LX
  Chromatographic purity %: 98.853%
  Isomer %: 0.699%
[2]; 10 days, High humidity RH92.5%
  Chromatographic purity %: 98.882%
  Isomer %: 0.708%
[2]; [9]
  Chromatographic purity %: 98.930%
  Isomer %: 0.692%
[2]; 10 days, Light 4500 ± 500 LX
  Chromatographic purity %: 98.756%
  Isomer %: 0.712%
[2]; 30 days, High humidity RH92.5%
  Chromatographic purity %: 98.885%
  Isomer %: 0.704%
[2]; [10]
  Chromatographic purity %: 98.936%
  Isomer %: 0.683%
[2]; 30 days, Light 4500 ± 500 LX
  Chromatographic purity %: 95.099%
  Isomer %: 0.695%
Beagle dogs
  Drug-related toxicity (appearance, mental activity, appetite, hematological, blood biochemical, ECG): no significant drug-related toxicity
Beagle dogs; [11]
  Activities, mental condition and diet: normal activities, good mental condition, and normal diet
  ECG examinations, hematological tests and serum biochemical tests: no obvious abnormalities
Beagle dogs; [12]
  Activities, mental condition and diet: normal activities, good mental condition, and normal diet
  ECG examinations, hematological tests and serum biochemical tests: no obvious abnormalities

## C/C=C/C(=O)Oc1cc2c(s1)CCN([C@H](C(=O)OC)c1ccccc1Cl)C2 [Compound I-1, Methyl (S,E)-2-(2-chlorophenyl)-2-(2-(2-butenoyloxy)-6,7-dihydrothieno[3,2-c]pyridin-5(4H)-yl)-acetate]
[1]; 0 day, 0point
  Chromatographic purity %: 99.612%
  Individual maximum impurity %: 0.236%
[1]; [5]
  Chromatographic purity %: 99.598%
  Individual maximum impurity %: 0.242%
[1]; [6]
  Chromatographic purity %: 99.565%
  Individual maximum impurity %: 0.243%
[1]; [7]
  Chromatographic purity %: 99.555%
  Individual maximum impurity %: 0.242%
[3]
  ED200 (dose that doubled the bleeding time): 1.977 mg/kg
[2]; 0 day, 0point
  Chromatographic purity %: 99.612%
  Individual maximum impurity %: 0.236%
[2]; 5 days, High humidity RH92.5%
  Chromatographic purity %: 99.583%
  Individual maximum impurity %: 0.235%
[2]; [8]
  Chromatographic purity %: 99.595%
  Individual maximum impurity %: 0.234%
[2]; 5 days, Light 4500 ± 500 LX
  Chromatographic purity %: 99.539%
  Individual maximum impurity %: 0.287%
[2]; 10 days, High humidity RH92.5%
  Chromatographic purity %: 99.578%
  Individual maximum impurity %: 0.234%
[2]; [9]
  Chromatographic purity %: 99.596%
  Individual maximum impurity %: 0.232%
[2]; 10 days, Light 4500 ± 500 LX
  Chromatographic purity %: 99.502%
  Individual maximum impurity %: 0.313%
[2]; 30 days, High humidity RH92.5%
  Chromatographic purity %: 99.544%
  Individual maximum impurity %: 0.235%
[2]; [10]
  Chromatographic purity %: 99.570%
  Individual maximum impurity %: 0.237%
[2]; 30 days, Light 4500 ± 500 LX
  Chromatographic purity %: 98.868%
  Individual maximum impurity %: 0.698%
[4]; crystalline form A of I-1, 0 day
  Crystalline form: Crystalline form A
[4]; crystalline form A of I-1, 5 days, High humidity (RH 92.5%)
  Crystalline form: Crystalline form A
[4]; crystalline form A of I-1, 5 days, High temperature (60° C.)
  Crystalline form: Crystalline form A
[4]; crystalline form A of I-1, 5 days, Light (5000 ± 5000 Lx)
  Crystalline form: Crystalline form A
[4]; crystalline form A of I-1, 10 days, High humidity (RH 92.5%)
  Crystalline form: Crystalline form A
[4]; crystalline form A of I-1, 10 days, High temperature (60° C.)
  Crystalline form: Crystalline form A
[4]; crystalline form A of I-1, 10 days, Light (5000 ± 500 Lx)
  Crystalline form: Crystalline form A
[4]; crystalline form A of I-1, 30 days, High humidity (RH 92.5%)
  Crystalline form: Crystalline form A
[4]; crystalline form A of I-1, 30 days, High temperature (60° C.)
  Crystalline form: Crystalline form A
[4]; crystalline form A of I-1, 30 days, Light (5000 ± 500 Lx)
  Crystalline form: Crystalline form A
[4]; crystalline form A of I-1, high temperature, high humidity and light for 5, 10 and 30 days
  Change of the crystalline form by X-ray powder diffraction: has not changed
Beagle dogs
  Drug-related toxicity (appearance, mental activity, appetite, hematological, blood biochemical, ECG): no significant drug-related toxicity
Beagle dogs; [11]
  Activities, mental condition and diet: normal activities, good mental condition, and normal diet
  ECG examinations, hematological tests and serum biochemical tests: no obvious abnormalities
Beagle dogs; [12]
  Activities, mental condition and diet: normal activities, good mental condition, and normal diet
  ECG examinations, hematological tests and serum biochemical tests: no obvious abnormalities
